# Data taken from patent US20250262167A1, “COMPOUNDS, TARGETS AND PATHWAYS FOR MACROPHAGE MODULATION” (Massachusetts Institute of Technology, priority 2020, published 2025).
# Read-outs that look alike come from different tables or passages of the source.
# Tests used:
# [1] = Macrophage numbers and gut bacterial counts in non-tumor bearing mice; format: in vivo, mouse
# Protocol: (n=3). Shown are representative F4/80 versus CD11b staining profiles gating on CD45+ cells. I.P.: intraperitoneal injection; S.C.: paratumor subcutaneous injection. […] Data shown are mean±s.d. n.s., not significant by T-test.
# Next, we examined whether thiostrepon has anti-tumor effect in vivo through activating macrophages. B16F10 melanoma cells were injected subcutaneously into syngeneic C57BL/6 mice. 6 and 12 days later, tumor-bearing mice were treated with either vehicle (DMSO), melanoma specific antibody TA99, thiostrepton, or combination of TA99 and thiostrepton by intraperitoneal injection (I.P.). […] Since thiostrepton inhibits cell proliferation and is an antibiotic, to exclude its systematic effects on immune cells and on gut microbiome, tumor-bearing mice were treated by para-tumor subcutaneous injection (S.C.) with a lower dose of thiostrepton (20 mg/kg). […] Consistently, more abundant macrophages were stained positive for F4/80 by immunochemistry in tumor sections from mice treated with thiostrepton or thiostrepton plus TA99 than mice treated with vehicle or T99 (FIG. 6E).
# [2] = tested on: hMDMs differentiated into M2 by IL-4 plus IL-13; assay: Reprogramming screen and dosage response on M2-like differentiated macrophages; conditions: Homo sapiens, Macrophage, 24 h, read-out: EC;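 also: human monocyte-derived macrophages held 24 h in 5 ng/mL IL-4 plus IL-13 before 24 h compound exposure, with cell shape measured from images in 384-well plates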
# Protocol: Shown are comparison of Z-scores between 5 μM or 10 μM of compounds. […] Shown are comparison of Z-scores between 5 μM or 10 μM of compounds. […] EC and fitness of 21 M1-polarizing (triangle) and 19 M2-polarizing compounds (circle) were calculated by the Michaelis-Menten equation and plotted. Data were summarized from 3 independent experiments.
# Human macrophages were seeded into optical 384-well plates. Sixteen hours later, medium in M1 plates were replaced by M1 differentiating medium (complete RPMI with 50 ng/mL IFNγ and 50 ng/mL TNFα) and medium in M2 plates by M2 differentiating medium (complete RPMI with 5 ng/mL IL-4 and 5 ng/mL IL-13). After 24 hrs cell differentiation, M1 plates (M1 macrophages) and M2 plates (M2 macrophages) were treated with M2-activating compounds and M1-activating compounds respectively for 24 hrs. Two independent experiments were performed with or without replacing differentiating medium right before treatment. Cell imaging and analysis were performed as indicated above.
# To investigate whether the identified compounds could reprogram or reactivate macrophages after M1- or M2-like differentiation, we rescreened the hits on M1- or M2-activated macrophages. hMDMs were activated into M2-like macrophages by IL-4 plus IL-13 or M1-like macrophages by IFNγ plus TNFα. After removing the differentiating cytokines, M2-like macrophages were treated with each of the 166 M1-activating compounds and M1-like macrophages were treated with each of the 180 M2-activating compounds at a final concentration of either 5 μM and 10 μM. 24 hours later, cell images were taken and cell shapes were quantified. […] Dosage responses were carried out with 40 commercial available compounds (21 M1-activating and 19 M2-activating) on polarized macrophages.
# We also rescreened the hits on differentiated macrophages in the presence of differentiating cytokines: either IL-4 plus IL-13 or IFNγ plus TNFα.
# [3] = tested on: mouse bone marrow macrophages (BMMs); assay: Development and function of TAM/M2-like macrophages in vitro (qPCR, flow cytometry); format: cell-based
# Protocol: DEGs were identified by edgeR at P<0.05 with at least 2 fold-change. Data for genes that were not classified as differentially expressed are plotted in black. […] Mouse BMMs were cultured in normal medium with or without 2.5 μM thiostrepton for 24 hrs (group 1), or cultured in B16F10 tumor cell conditioned medium (CM) with or without 2.5 μM thiostrepton for 24 hrs (group 2), or cultured with B16F10 tumor cell CM for 24 hrs first and then treated with 2.5 μM thiostrepton for another 24 hrs (group 3). The transcript levels of the indicated genes were quantified by qPCR. Data were summarized from two independent experiments. […] Mouse BMMs were treated with thiostrepton for 24 hrs. Untreated and treated macrophages were co-cultured with equal number of B16F10 melanoma cells for 12 hrs. The number of tumor cells were quantified by flow cytometry after subtracting macrophages from total number of cells. Data were summarized from three independent experiments. ** P<0.01 by T-test.
# Expression of MHCII, CD80, iNOS, Arg1 and CD206 were quantified by flow cytometry. Shown are representative staining profiles of treated (red) and untreated (dark) TAMs from two independent experiments. […] Alternatively, mouse BMMs were polarized with IL-4/IL-13 (group 3) or lactic acid (group 5) for 24 hrs first and then either not treated or treated with […] thiostrepton for another 24 hrs. The transcript levels of the indicated genes were quantified by qPCR. Data are summarized from two independent experiments.
# Mouse BMMs were not treated or treated with […] thiostrepton for 24 hours in normal medium (group 1) or in the presence of IL4/IL13 (group 2), or mouse BMMs were polarized with IL4/IL13 for 24 hours and then either not treated or treated with […] thiostrepton for 24 hours (group 3). RNA was isolated and the transcript levels of the indicated genes were quantified by PCR. Data, shown as mean±s.d., were summarized from two independent experiments. * P<0.05 and ** P<0.01 by T-test. […] Data are shown as mean±s.e.m. FIGS. 19C-19D show flow cytometry analysis of TAM (F4/80^+CD11b^+Ly6C^−Ly6G^−), inflammatory monocytes (F4/80′^intCD11b^+Ly6C^+Ly6G^−) and monocytes (F4/80^−CD11b^+Ly6C^+Ly6G^+) in the tumors of mice treated with DMSO, TA99, cucurbitacin I, and cucurbitacin I plus TA99 18 days after tumor engraftment. Shown are representative F4/80 versus CD11b staining profiles gating on CD45+ cells and MHCII histograms gating on macrophages from c.
# Mouse bone marrow-derived macrophages (mBMM) were prepared as described previously^54. Briefly, fresh bone marrow cells were isolated from B6 mice. Cells were plated into 6-well plate with 1×10^6/mL in complete RPMI with 2-mercaptoethanol and cultured for 6 days with fresh medium change every 2 days. mBMMs were differentiated to resemble TAMs in the presence of 10 ng/mL mIL-4 and mIL-13 (Peprotech) or 25 mM lactate acid for 24 hrs or tumor conditioned medium (CM). To prepare CM, 70% confluent B16F10 cultured were replaced with fresh medium and the tumor medium was collected and filtered ([…]) 24 hrs later. The mixture of 3 volumes of tumor medium with 1 volume of complete RPMI for mBMM serves as the CM. Expression of Arg, Fizz1 and Vegfa were quantified by qPCR to assess the development of TAMs. Other genes of Tnf, Il1b, Nos2, Cxcl2, Ccl5, Ym1 and Tgfb serve as macrophage activating markers. To assay the tumor growth inhibition, mBMMs (10,000 cells per well in 96 well plate) were treated with thiostrepton for 24 hrs and then cocultured with equal number of B16 melanoma cells in fresh complete RPMI for 12 hrs. The conditioned medium treated or not treated with thiostrepton were collected and filtered. The numbers of B16 melanoma cells were cultured for 12 hrs with conditioned medium or conditioned medium heated at 95° C. for 5 min. Tumor cells were quantified by flow cytometry to determine the macrophage-dependent killing function. […]
# [4] = HFD 16 weeks
# Protocol: At week 15 plus 3 days, mice from FIG. 32A were starved overnight (12˜16 hrs) with only water. Glucose (1 mg/kg) was injected intraperitoneally and blood glucose levels were measured at the indicated time. AUC were calculated for statistics (right panel).
# Liver samples fixed in 10% buffered formalin were embedded in paraffin, sliced (2 μm sections), and stained with hematoxylin and eosin (H&E). Histological examination for morphological changes was performed in a blinded manner. Liver sections were scored according to the criteria of the NAFLD activity score (NAS).
# The GTT were performed in mice 19 weeks after feeding with HFD or NC. For GTT, mice were fasted overnight, followed by an intraperitoneal injection of 1 g/kg glucose. […] Blood was obtained from the tail vein before (0 min) and after (15, 30, 60, 90 and 120 min) the injection of glucose or insulin. Glucose levels were measured using an automatic glucometer (Roche Diagnostics, Rotkreuz, Switzerland).
# B6 mice were fed with HFD for 16 weeks.
# [5] = tested on: human Kupffer cells from NAFLD patients; conditions: 500 nM, ex vivo, 24 hours
# Protocol: CD14^+ KCs were sorted from single cell suspension of NAFLD human liver biopsies (n=2) and treated with DMSO or DPI (500 nM) for 24 hrs, followed by RNAseq to quantify gene expression.
# Human liver biopsies were obtained from livers procured from deceased donors deemed unacceptable for liver transplantation. Samples were collected with appropriate institutional ethics approval from The First Affiliated Hospital of Jilin University. All experiments were performed in accordance with the relevant guidelines and regulations. In addition, written informed consent was obtained from each subject. During organ retrieval, donor liver grafts were perfused in situ with cold (HTK) solution (Methapharm) to thoroughly flush out circulating cells, leaving only tissue resident cells that are then used to prepare a single-cell suspension to isolate immune cells. The unused liver caudate lobe post liver transplantation was collected and flushed with HBS+EGTA at 4° C. to remove any non-liver resident cells. Single-cell isolation from the resected caudate lobe was performed with a modified two-step collagenase procedure (MacFarland et al. 2017 ACnano). Single cell suspension was stained with anti-CD45 to sort all immune cells for scRNAseq or anti-CD14 to sort KCs for in vitro treatment by flow cytometry (BD Aria).
# RNAs were extracted with RNeasy MinElute Kit (Qiagen), converted into cDNA and sequenced using Next-Generation Sequencing (Illumina). RNA-seq data were aligned to the human genome (version hg19) and raw counts of each genes of each sample were calculated with bowtie2 2.2.3 (Langmead et al. 2009) and RSEM 1.2.15 (Li et al. 2011). Differential expression analysis was performed using the program edgeR at P<0.05 with a two-fold change (Robinson et al. 2010). The gene expression level across different samples was normalized and quantified using the function of cpm. DEGs were annotated using online functional enrichment analysis tool DAVID (Huang et al. 2007). […]
# [6] = BMMs in B16F10 conditioned medium, 2.5 μM, 24 hrs, qPCR
# [7] = BMMs in B16F10 conditioned medium, flow cytometry
# [8] = IL-4/IL-13 and lactic acid-polarized BMMs, qPCR
# Protocol for c-Myc: Transfected cells were not treated or treated with DPI (50 and 500 nM) for 6 hrs and luciferase activities were measured. Data are presented as the mean±sd (n=5). P values were calculated by student t-test. * P<0.05, ** P<0.01, *** P<0.001, **** P<0.0001.
# The c-Myc activity was assessed using the Myc Reporter kit (BPS Biosciences) and the Dual-Luciferase Reporter System (Promega) according to the manufacturers' instructions. Briefly, 100 μL (1.5×10^5 cells/mL) control and Kupffer cells were seeded into 96-well plates. After overnight incubation, when cells reached ˜50% confluency, 1 μL of Reporter A (60 ng/μL) in the Myc Reporter kit was transfected into cells using Turbofectin 8.0. After 48 hours, cells were lysed in 25 μL Passive Lysis Buffer (provided in the Dual-Luciferase Reporter kit). 20 μL of cell lysate was transferred to 96-well plates and placed in a 96-well microplate luminometer (GloMax-Multi, Promega). 100 μL Luciferase Assay Reagent II and 100 μL Stop & Glo Reagent (both provided in the Dual-Luciferase Reporter kit) were sequentially injected, and firefly and Renilla luciferase activities were automatically measured. c-Myc activities were determined by the ratios of firefly to Renilla luciferase activities.
structure (smiles),measurement,setting,value
C=C(NC(=O)C(=C)NC(=O)c1csc(C2=N[C@@H]3c4csc(n4)[C@H]4NC(=O)c5csc(n5)[C@H]([C@](C)(O)[C@@H](C)O)NC(=O)[C@H]5CSC(=N5)/C(=C/C)NC(=O)[C@H]([C@@H](C)O)NC(=O)c5csc(n5)[C@]3(CC2)NC(=O)[C@H](C)NC(=O)C(=C)NC(=O)[C@H](C)NC(=O)[C@H]([C@@H](C)CC)N[C@@H]2C=Cc3c([C@H](C)O)cc(nc3[C@H]2O)C(=O)O[C@@H]4C)n1)C(N)=O [Thiostrepton],total bacterial counts in the gut,[1]; both dosing strategies,did not change
same,macrophages in the spleen and bone marrow,[1]; intraperitoneal administration,increased numbers
same,macrophage numbers,[1]; subcutaneous administration,did not have significant effects
same,EC (M1 Z-score cutoff),[2],0.408 µM
same,"expression of M1-associated genes Tnf, Il1b, Cxcl2 and Nos2",[3]; [6],up-regulated
same,"expression of TAM/M2-associated genes Arg1, Fizz1, Vegfa, Ym1 and Tgfb",[3]; [6],inhibited
same,ARG1,[3]; [7],down-regulation
same,"MHCII, CD80 and iNOS",[3]; [7],up-regulation
same,"expression of Arg1, Fizz1, Ym1 and Tgfb",[3]; [8],inhibited
same,"expression of Tnf, Il1b, Cxcl2 and Ccl5",[3]; [8],elevated
c1ccc2c(c1)[I+]c1ccccc1-2 [Diphenyleneiodonium chloride],glucose tolerance,[4],increased
same,"lipid droplet, steatosis and collagen deposition in the liver",[4],reduced
same,weight gain,[4]; 2 mg/kg every 5 days from week 9,significantly reduced
same,weight of iWAT,[4]; vs vehicle,significantly lower
same,c-Myc luciferase activity,c-Myc; Pkm−/− ImKCs,not
same,c-Myc luciferase activity,"c-Myc; parental ImKCs, 50 and 500 nM, 6 hrs",induced
same,EC (M1 Z-score cutoff),[2],0.336 µM
same,"expression of DAM markers APOE, CLEC10A, TREM2 and C1QA",[5],downregulated
same,"expression of genes associated with chemokine-mediated signaling, chemotaxis and inflammatory response",[5],suppressed
same,expression of glycolytic genes,[5],upregulated
